Patent US5043450A, “8-alkoxyquinolonecarboxylic acid and salts thereof” (priority 1986, dated 1991)
Values after ≈ are worked out from the molar mass of the structure shown. Read-outs that look alike come from different tables or passages of the source.

Tests used:
Type in all cases: cell-based
B. fragilis 0558 = assay: Antibacterial spectra, MIC; conditions: Bacteroides fragilis
[1] = system: Peptostreptococcus anaerobius KYA 27337; assay: Antibacterial spectra, MIC
[2] = system: Enterobacter cloacae IID 977; assay: Antibacterial spectra, MIC
K. pneumoniae 1-220S = assay: Antibacterial spectra, MIC; conditions: Klebsiella pneumoniae, 1220S
Shigella sonnei IID 969 = assay: Antibacterial spectra, MIC; conditions: IID969, 10^6 cells/ml, Gram -
Protocol: (§1) The antibacterial test was carried out according to the method designated by Japan Society of Chemotherapy.

E. coli ML 4707 = assay: Antibacterial spectra, MIC; conditions: Escherichia coli, ML4707; 10^6 cells/ml; Gram -
Protocol: as §1

[3] = system: Proteus vulgaris IFO 3167; assay: Antibacterial spectra, MIC; conditions: IFO3167, 10^6 cells/ml, Gram -
Protocol: as §1

[4] = system: Acinetobacter anitratus IID 876; assay: Antibacterial spectra, MIC; conditions: Acinetobacter calcoaceticus, IID876
[5] = system: Salmonella enteritidis IID 604; assay: Antibacterial spectra, MIC; conditions: Salmonella enterica
P. maltophilia GIFU 2491 = assay: Antibacterial spectra, MIC; conditions: Stenotrophomonas maltophilia, GIFU2491
[6] = system: Peptococcus magnus KY 017; assay: Antibacterial spectra, MIC; conditions: Finegoldia magna, KY017
P. aeruginosa IFO 12689 = assay: Antibacterial spectra, MIC; conditions: Pseudomonas aeruginosa, IFO12689
S. epidermidis IID 866 = assay: Antibacterial spectra, MIC; conditions: Staphylococcus epidermidis, IID866
[7] = system: Alcaligenes faecalis 0114002; assay: Antibacterial spectra, MIC
B. distasonis 8503 = assay: Antibacterial spectra, MIC; conditions: Parabacteroides distasonis
[8] = system: B. thetaiotaomicron (0661); assay: Antibacterial spectra, MIC; conditions: Bacteroides thetaiotaomicron
[9] = system: Staphylococcus aureus 209 P; assay: Antibacterial spectra, MIC
C. perfringens KYA 13123 = assay: microbe, parasite or virus in culture; conditions: Clostridium perfringens, KYA13123
[10] = system: Serratia marcescens IID 618; assay: Antibacterial spectra, MIC
[11] = system: Yersinia enterocolitica IID 981; assay: Antibacterial spectra, MIC
[12] = system: Eubacterium lentum GAI 5242; assay: Antibacterial spectra, MIC; conditions: Eggerthella lenta, GAI5242
[13] = system: Fusobacterium mortiferum 4249; assay: Antibacterial spectra, MIC
[14] = system: Propionibacterium acens 11828; assay: Antibacterial spectra, MIC
B. fragilis 25285 = assay: Antibacterial spectra, MIC; conditions: Bacteroides fragilis
[15] = system: Klebsiella pneumoniae KY(GN)6445; assay: Antibacterial spectra, MIC
Bacilus subtilis PCI 219 = assay: Antibacterial spectra, MIC; conditions: Bacillus subtilis, PCI219
[16] = system: S. aureus IID 670 (Terajima); assay: Antibacterial spectra, MIC; conditions: Staphylococcus aureus, IID670
E. coli ATCC 10536 = assay: Antibacterial spectra, MIC; conditions: Escherichia coli, ATCC10536
[17] = system: Pseudomonas aeruginosa V-1; assay: Antibacterial spectra, MIC; conditions: V1
[18] = system: Morganella morganii IID 602; assay: Antibacterial spectra, MIC
[19] = system: Citrobacter freundii IID 976; assay: Antibacterial spectra, MIC
F. necrophorum S-45 = assay: Antibacterial spectra, MIC; conditions: Fusobacterium necrophorum, S45
[20] = system: Escherichia coli NIHJ JC-2; assay: Antibacterial spectra, MIC; conditions: NIHJJC2
[21] = system: Bacteroides fragilis GM 7000; assay: Antibacterial spectra, MIC; conditions: GM7000
[22] = system: Clostridium difficile I-E; assay: Antibacterial spectra, MIC; conditions: Clostridioides difficile
Pst. micros UPI 5464-1 = assay: Antibacterial spectra, MIC; conditions: Parvimonas micra, UPI54641
[23] = system: Veillonella parvula KYA 10790; assay: Antibacterial spectra, MIC; conditions: KYA10790
P. aeruginosa IID 1210 = assay: Antibacterial spectra, MIC; conditions: Pseudomonas aeruginosa, IID1210
S. aureus Smith = assay: Antibacterial spectra, MIC; conditions: Staphylococcus aureus
P. mirabilis IID 994 = assay: Antibacterial spectra, MIC; conditions: Proteus mirabilis, IID994
B. vulgatus KYA 29327 = assay: Antibacterial spectra, MIC; conditions: Phocaeicola vulgatus, KYA29327
P. cepacia GIFU 518 = assay: Antibacterial spectra, MIC; conditions: Burkholderia cepacia, GIFU518
C. ramosum = assay: Antibacterial spectra, MIC; conditions: Thomasclavelia ramosa
F. varium KYA 8501 = assay: Antibacterial spectra, MIC; conditions: Fusobacterium varium, KYA8501
[24] = 10^6 cells/ml, Gram -, read-out: MIC
[25] = 10^6 cells/ml, Gram +, read-out: MIC

COc1c(N2CCN(C)CC2)c(F)cc2c(=O)c(C(=O)O)cn(C3CC3)c12 [Exp. 2, 1-cyclopropyl-6-fluoro-1,4-dihydro-8-methoxy-7-(4-methyl-1-piperazinyl)-4-oxo-3-quinolinecarboxylic acid]
MIC (B. fragilis 0558; [24]): 0.2 µg/mL (≈ 0.533 µM)
MIC ([1]; KYA27337, 10^6 cells/ml, Gram +, read-out: MIC): 0.78 µg/mL (≈ 2.08 µM)
MIC ([2]; IID977, 10^6 cells/ml, Gram -, read-out: MIC): 0.1 µg/mL (≈ 0.266 µM)
MIC (K. pneumoniae 1-220S; [24]): 0.1 µg/mL (≈ 0.266 µM)
MIC (Shigella sonnei IID 969): 0.025 µg/mL (≈ 0.0666 µM)
MIC (E. coli ML 4707): 0.025 µg/mL (≈ 0.0666 µM)
MIC [3]: 0.025 µg/mL (≈ 0.0666 µM)
MIC [4, 24]: 0.1 µg/mL (≈ 0.266 µM)
MIC [5, 24]: 0.1 µg/mL (≈ 0.266 µM)
MIC (P. maltophilia GIFU 2491; [24]): 0.2 µg/mL (≈ 0.533 µM)
MIC [6, 25]: 0.2 µg/mL (≈ 0.533 µM)
MIC (P. aeruginosa IFO 12689; [24]): 1.56 µg/mL (≈ 4.16 µM)
MIC (S. epidermidis IID 866; [25]): 0.1 µg/mL (≈ 0.266 µM)
MIC [7]: 0.39 µg/mL (≈ 1.04 µM)
MIC (B. distasonis 8503): 0.39 µg/mL (≈ 1.04 µM)
MIC [8, 24]: 1.56 µg/mL (≈ 4.16 µM)
MIC [9, 25]: 0.1 µg/mL (≈ 0.266 µM)
MIC (C. perfringens KYA 13123): 0.39 µg/mL (≈ 1.04 µM)
MIC ([10]; IID618, 10^6 cells/ml, Gram -, read-out: MIC): 0.1 µg/mL (≈ 0.266 µM)
MIC ([11]; IID981, 10^6 cells/ml, Gram -, read-out: MIC): 0.1 µg/mL (≈ 0.266 µM)
MIC [12, 25]: 0.2 µg/mL (≈ 0.533 µM)
MIC [13, 24]: 0.78 µg/mL (≈ 2.08 µM)
MIC [14, 25]: 6.25 µg/mL (≈ 16.6 µM)
MIC (B. fragilis 25285): 0.39 µg/mL (≈ 1.04 µM)
MIC [15, 24]: 0.05 µg/mL (≈ 0.133 µM)
MIC (Bacilus subtilis PCI 219): 0.025 µg/mL (≈ 0.0666 µM)
MIC [16, 25]: 0.1 µg/mL (≈ 0.266 µM)
MIC (E. coli ATCC 10536): 0.025 µg/mL (≈ 0.0666 µM)
MIC [17]: 0.39 µg/mL (≈ 1.04 µM)
MIC ([18]; IID602, 10^6 cells/ml, Gram -, read-out: MIC): 0.1 µg/mL (≈ 0.266 µM)
MIC ([19]; IID976, 10^6 cells/ml, Gram -, read-out: MIC): 0.05 µg/mL (≈ 0.133 µM)
MIC (F. necrophorum S-45; [24]): 0.78 µg/mL (≈ 2.08 µM)
MIC [20]: 0.0125 µg/mL (≈ 0.0333 µM)
MIC [21]: 0.39 µg/mL (≈ 1.04 µM)
MIC [22, 25]: 1.56 µg/mL (≈ 4.16 µM)
MIC (Pst. micros UPI 5464-1): 0.39 µg/mL (≈ 1.04 µM)
MIC [23]: 0.39 µg/mL (≈ 1.04 µM)
MIC (P. aeruginosa IID 1210; [24]): 1.56 µg/mL (≈ 4.16 µM)
MIC (S. aureus Smith; [25]): 0.1 µg/mL (≈ 0.266 µM)
MIC (P. mirabilis IID 994; [24]): 0.05 µg/mL (≈ 0.133 µM)
MIC (B. vulgatus KYA 29327): 0.39 µg/mL (≈ 1.04 µM)
MIC (P. cepacia GIFU 518; [24]): 1.56 µg/mL (≈ 4.16 µM)
MIC (C. ramosum): 3.13 µg/mL (≈ 8.34 µM)
MIC (F. varium KYA 8501; [24]): 6.25 µg/mL (≈ 16.6 µM)

COc1c(N2CCNC(C)C2)c(F)cc2c(=O)c(C(=O)O)cn(C3CC3)c12 (stereo not shown) [Exp. 3, 1-cyclopropyl-6-fluoro-1,4-dihydro-8-methoxy-7-(3-methyl-1-piperazinyl)-4-oxo-3-quinolinecarboxylic acid]
MIC (B. fragilis 0558): 0.39 µg/mL (≈ 1.04 µM)
MIC ([1]; KYA27337): 0.39 µg/mL (≈ 1.04 µM)
MIC ([2]; IID977): 0.05 µg/mL (≈ 0.133 µM)
MIC (K. pneumoniae 1-220S): 0.05 µg/mL (≈ 0.133 µM)
MIC (Shigella sonnei IID 969): 0.0125 µg/mL (≈ 0.0333 µM)
MIC (E. coli ML 4707): 0.0125 µg/mL (≈ 0.0333 µM)
MIC [3]: 0.025 µg/mL (≈ 0.0666 µM)
MIC [4]: 0.1 µg/mL (≈ 0.266 µM)
MIC [5]: 0.05 µg/mL (≈ 0.133 µM)
MIC (P. maltophilia GIFU 2491): 0.2 µg/mL (≈ 0.533 µM)
MIC [6]: 0.2 µg/mL (≈ 0.533 µM)
MIC (P. aeruginosa IFO 12689): 1.56 µg/mL (≈ 4.16 µM)
MIC (S. epidermidis IID 866): 0.1 µg/mL (≈ 0.266 µM)
MIC [7]: 0.39 µg/mL (≈ 1.04 µM)
MIC (B. distasonis 8503): 0.78 µg/mL (≈ 2.08 µM)
MIC [8]: 0.78 µg/mL (≈ 2.08 µM)
MIC [9]: 0.1 µg/mL (≈ 0.266 µM)
MIC (C. perfringens KYA 13123): 0.39 µg/mL (≈ 1.04 µM)
MIC ([10]; IID618): 0.1 µg/mL (≈ 0.266 µM)
MIC ([11]; IID981): 0.05 µg/mL (≈ 0.133 µM)
MIC [12]: 0.2 µg/mL (≈ 0.533 µM)
MIC [13]: 0.78 µg/mL (≈ 2.08 µM)
MIC [14]: 6.25 µg/mL (≈ 16.6 µM)
MIC (B. fragilis 25285): 0.39 µg/mL (≈ 1.04 µM)
MIC [15]: 0.025 µg/mL (≈ 0.0666 µM)
MIC (Bacilus subtilis PCI 219): 0.025 µg/mL (≈ 0.0666 µM)
MIC [16]: 0.1 µg/mL (≈ 0.266 µM)
MIC (E. coli ATCC 10536): 0.0125 µg/mL (≈ 0.0333 µM)
MIC [17]: 0.2 µg/mL (≈ 0.533 µM)
MIC ([18]; IID602): 0.1 µg/mL (≈ 0.266 µM)
MIC ([19]; IID976): 0.025 µg/mL (≈ 0.0666 µM)
MIC (F. necrophorum S-45): 0.39 µg/mL (≈ 1.04 µM)
MIC [20]: ≤ 0.0063 µg/mL
MIC [21]: 0.39 µg/mL (≈ 1.04 µM)
MIC [22]: 3.13 µg/mL (≈ 8.34 µM)
MIC (Pst. micros UPI 5464-1): 0.2 µg/mL (≈ 0.533 µM)
MIC [23]: 0.2 µg/mL (≈ 0.533 µM)
MIC (P. aeruginosa IID 1210): 1.56 µg/mL (≈ 4.16 µM)
MIC (S. aureus Smith): 0.1 µg/mL (≈ 0.266 µM)
MIC (P. mirabilis IID 994): 0.025 µg/mL (≈ 0.0666 µM)
MIC (B. vulgatus KYA 29327): 0.78 µg/mL (≈ 2.08 µM)
MIC (P. cepacia GIFU 518): 1.56 µg/mL (≈ 4.16 µM)
MIC (C. ramosum): 3.13 µg/mL (≈ 8.34 µM)
MIC (F. varium KYA 8501): 6.25 µg/mL (≈ 16.6 µM)
